Data published in ChEMBL document CHEMBL5390204, “Persephacin Is a Broad-Spectrum Antifungal Aureobasidin Metabolite That Overcomes Intrinsic Resistance in Aspergillus fumigatus” (J Nat Prod, 2023).
≈ marks a conversion by molar mass, not a printed value.

What was measured:
Nakaseomyces glabratus [1] = experiment: Antifungal activity against Candida glabrata 2 assessed as inhibition in fungal growth incubated for 48 hrs by microplate reader analysis; assay type: functional
Saccharomyces cerevisiae = experiment: Antifungal activity against multidrug-resistant Saccharomyces cerevisiae 399 assessed as inhibition in fungal growth incubated for 48 hrs by microplate reader analysis; assay type: functional
Clavispora lusitaniae = experiment: Antifungal activity against multidrug-resistant Candida lusitaniae 398 assessed as inhibition in fungal growth incubated for 48 hrs by microplate reader analysis; assay type: functional
Candida duobushaemulonii = experiment: Antifungal activity against multidrug-resistant Candida duobushaemulonii 394 assessed as inhibition in fungal growth incubated for 48 hrs by microplate reader analysis; assay type: functional; conditions: Candidozyma duobushaemuli
[Candida] auris [2] = Antifungal activity against multidrug-resistant Candida auris 390 assessed as inhibition in fungal growth incubated for 48 hrs by microplate reader analysis; assay type: functional; conditions: Candidozyma auris
[Candida] auris [3] = Antifungal activity against multidrug-resistant Candida auris 389 assessed as inhibition in fungal growth incubated for 48 hrs by microplate reader analysis; assay type: functional; conditions: Candidozyma auris
[Candida] auris [4] = Antifungal activity against multidrug-resistant Candida auris 387 assessed as inhibition in fungal growth incubated for 48 hrs by microplate reader analysis; assay type: functional; conditions: Candidozyma auris
[Candida] auris [5] = Antifungal activity against multidrug-resistant Candida auris 386 assessed as inhibition in fungal growth incubated for 48 hrs by microplate reader analysis; assay type: functional; conditions: Candidozyma auris
[Candida] auris [6] = Antifungal activity against multidrug-resistant Candida auris 385 assessed as inhibition in fungal growth incubated for 48 hrs by microplate reader analysis; assay type: functional; conditions: Candidozyma auris
[Candida] auris [7] = Antifungal activity against multidrug-resistant Candida auris 384 assessed as inhibition in fungal growth incubated for 48 hrs by microplate reader analysis; assay type: functional; conditions: Candidozyma auris
[Candida] auris [8] = Antifungal activity against multidrug-resistant Candida auris 382 assessed as inhibition in fungal growth incubated for 48 hrs by microplate reader analysis; assay type: functional; conditions: Candidozyma auris
[Candida] auris [9] = Antifungal activity against multidrug-resistant Candida auris 381 assessed as inhibition in fungal growth incubated for 48 hrs by microplate reader analysis; assay type: functional; conditions: Candidozyma auris
Pichia kudriavzevii [10] = experiment: Antifungal activity against Candida krusei 25 assessed as inhibition in fungal growth incubated for 48 hrs by microplate reader analysis; assay type: functional
Kluyveromyces marxianus = experiment: Antifungal activity against Candida kefyr 12 assessed as inhibition in fungal growth incubated for 48 hrs by microplate reader analysis; assay type: functional
Candida albicans [11] = experiment: Antifungal activity against Candida albicans ATCC 10231 assessed as reduction in fungal growth incubated for 48 hrs by microplate reader analysis; assay type: functional
Candida albicans [12] = experiment: Antifungal activity against Candida albicans SC5314 assessed as reduction in fungal growth incubated for 48 hrs by microplate reader analysis; assay type: functional
Pichia kudriavzevii [13] = experiment: Antifungal activity against Candida krusei ATCC 6258 (Y-7179) assessed as reduction in fungal growth incubated for 48 hrs by microplate reader analysis; assay type: functional
Candida albicans [14] = experiment: Antifungal activity against Candida albicans 1 assessed as inhibition in fungal growth incubated for 48 hrs by microplate reader analysis; assay type: functional
Candida albicans [15] = experiment: Antifungal activity against Candida albicans 14 assessed as inhibition in fungal growth incubated for 48 hrs by microplate reader analysis; assay type: functional
Candida albicans [16] = experiment: Antifungal activity against Candida albicans 21 assessed as inhibition in fungal growth incubated for 48 hrs by microplate reader analysis; assay type: functional
Candida albicans [17] = experiment: Antifungal activity against Candida albicans 24 assessed as inhibition in fungal growth incubated for 48 hrs by microplate reader analysis; assay type: functional
Nakaseomyces glabratus [18] = experiment: Antifungal activity against Candida glabrata 16 assessed as inhibition in fungal growth incubated for 48 hrs by microplate reader analysis; assay type: functional
Nakaseomyces glabratus [19] = experiment: Antifungal activity against Candida glabrata 17 assessed as inhibition in fungal growth incubated for 48 hrs by microplate reader analysis; assay type: functional
Nakaseomyces glabratus [20] = experiment: Antifungal activity against Candida glabrata 22 assessed as inhibition in fungal growth incubated for 48 hrs by microplate reader analysis; assay type: functional
Candida parapsilosis = experiment: Antifungal activity against Candida parapsilosis 23 assessed as inhibition in fungal growth incubated for 48 hrs by microplate reader analysis; assay type: functional; conditions: Lodderomyces parapsilosis
Cryptococcus neoformans [21] = experiment: Antifungal activity against Cryptococcus neoformans H99 assessed as reduction in fungal growth incubated for 48 hrs by microplate reader analysis; assay type: functional
Aspergillus fumigatus [22] = experiment: Antifungal activity against Aspergillus fumigatus MYA 3627 assessed as reduction in fungal growth incubated for 48 hrs by microplate reader analysis; assay type: functional
Aspergillus fumigatus [23] = experiment: Antifungal activity against Aspergillus fumigatus NRRL6113 assessed as reduction in fungal growth incubated for 48 hrs by microplate reader analysis; assay type: functional
Aspergillus fumigatus [24] = experiment: Antifungal activity against Aspergillus fumigatus NRRL5109 assessed as reduction in fungal growth incubated for 48 hrs by microplate reader analysis; assay type: functional
Aspergillus terreus [25] = experiment: Antifungal activity against Aspergillus terreus 191A6 assessed as reduction in fungal growth incubated for 48 hrs by microplate reader analysis; assay type: functional
Hamigera insecticola [26] = experiment: Antifungal activity against Hamigera insecticola NRRL35442 assessed as reduction in fungal growth incubated for 48 hrs by microplate reader analysis; assay type: functional
[Candida] auris [27] = Antifungal activity against multidrug-resistant Candida auris 381 assessed as inhibition in fungal growth incubated for 48 hrs in presence of 0% serum by microplate reader analysis; assay type: functional; conditions: Candidozyma auris
[Candida] auris [28] = Antifungal activity against multidrug-resistant Candida auris 381 assessed as inhibition in fungal growth incubated for 48 hrs in presence of 5% serum by microplate reader analysis; assay type: functional; conditions: Candidozyma auris
Cryptococcus neoformans [29] = experiment: Antifungal activity against Cryptococcus neoformans H99 assessed as inhibition in fungal growth incubated for 48 hrs in presence of 5% serum by microplate reader analysis; assay type: functional
Cryptococcus neoformans [30] = experiment: Antifungal activity against Cryptococcus neoformans H99 assessed as inhibition in fungal growth incubated for 48 hrs in presence of 10% serum by microplate reader analysis; assay type: functional
Aspergillus fumigatus [31] = experiment: Antifungal activity against Aspergillus fumigatus ATCC MYA-3627 assessed as inhibition in fungal growth incubated for 48 hrs in presence of 0% serum by microplate reader analysis; assay type: functional
Candida albicans [32] = experiment: Antifungal activity against Candida albicans ATCC 10231 assessed as reduction in fungal viability incubated for 48 hrs by microplate reader analysis; assay type: functional
Candida tropicalis = experiment: Antifungal activity against Candida tropicalis ATCC750 (Y-12699) assessed as reduction in fungal viability incubated for 48 hrs by microplate reader analysis; assay type: functional
Pichia kudriavzevii [33] = experiment: Antifungal activity against Candida krusei ATCC 6258 (Y-7179) assessed as reduction in fungal viability incubated for 48 hrs by microplate reader analysis; assay type: functional
Aspergillus fumigatus [34] = experiment: Antifungal activity against Aspergillus fumigatus MYA 3627 assessed as reduction in fungal viability incubated for 48 hrs by microplate reader analysis; assay type: functional
Aspergillus terreus [35] = experiment: Antifungal activity against Aspergillus terreus 191A6 assessed as reduction in fungal viability incubated for 48 hrs by microplate reader analysis; assay type: functional
Rhizopus arrhizus = experiment: Antifungal activity against Rhizopus oryzae FGSC 9543 assessed as reduction in fungal viability incubated for 48 hrs by microplate reader analysis; assay type: functional
Paecilomyces lilacinus = experiment: Antifungal activity against Paecilomyces lilacinus 165E10 assessed as reduction in fungal viability incubated for 48 hrs by microplate reader analysis; assay type: functional, Purpureocillium lilacinum
Hamigera insecticola [36] = experiment: Antifungal activity against Hamigera insecticola NRRL35442 assessed as reduction in fungal viability incubated for 48 hrs by microplate reader analysis; assay type: functional

## CC[C@H](C)C[C@H](C)C[C@H](C)C[C@@H]1NC(=O)[C@H](C(C)C)N(C)C(=O)[C@@H]([C@H](C)CC)OC(=O)[C@H](C(C)(C)O)N(C)C(=O)[C@H](CC(C)C)NC(=O)[C@H](C(C)C)N(C)C(=O)[C@H]([C@H](C)CC)NC(=O)[C@@H]2CCCN2C(=O)CN(C)C1=O
Nakaseomyces glabratus [1]
  MIC80: 0.2 µM (≈ 0.215 µg/mL)
Saccharomyces cerevisiae
  MIC80: 2.5 µM (≈ 2.69 µg/mL)
Clavispora lusitaniae
  MIC80: 2.5 µM (≈ 2.69 µg/mL)
Candida duobushaemulonii
  MIC80: 2.5 µM (≈ 2.69 µg/mL)
[Candida] auris [2]
  MIC80: 2.5 µM (≈ 2.69 µg/mL)
[Candida] auris [3]
  MIC80: 2.5 µM (≈ 2.69 µg/mL)
[Candida] auris [4]
  MIC80: 2.5 µM (≈ 2.69 µg/mL)
[Candida] auris [5]
  MIC80: 2.5 µM (≈ 2.69 µg/mL)
[Candida] auris [6]
  MIC80: 2.5 µM (≈ 2.69 µg/mL)
[Candida] auris [7]
  MIC80: 2.5 µM (≈ 2.69 µg/mL)
[Candida] auris [8]
  MIC80: 2.5 µM (≈ 2.69 µg/mL)
[Candida] auris [9]
  MIC80: 2.5 µM (≈ 2.69 µg/mL)
Pichia kudriavzevii [10]
  MIC80: 1.3 µM (≈ 1.4 µg/mL)
Kluyveromyces marxianus
  MIC80: 1.3 µM (≈ 1.4 µg/mL)
Candida albicans [11]
  MFC: 1.3 µM (≈ 1.4 µg/mL)
  MIC80: 0.6 µM (≈ 0.645 µg/mL)
Candida albicans [12]
  MFC: 1.3 µM (≈ 1.4 µg/mL)
  MIC80: 0.3 µM (≈ 0.323 µg/mL)
Pichia kudriavzevii [13]
  MFC: 2.5 µM (≈ 2.69 µg/mL)
  MIC80: 1.3 µM (≈ 1.4 µg/mL)
Candida albicans [14]
  MIC80: 2.5 µM (≈ 2.69 µg/mL)
Candida albicans [15]
  MIC80: 0.6 µM (≈ 0.645 µg/mL)
Candida albicans [16]
  MIC80: 1.3 µM (≈ 1.4 µg/mL)
Candida albicans [17]
  MIC80: 0.6 µM (≈ 0.645 µg/mL)
Nakaseomyces glabratus [18]
  MIC80: 0.3 µM (≈ 0.323 µg/mL)
Nakaseomyces glabratus [19]
  MIC80: 0.2 µM (≈ 0.215 µg/mL)
Nakaseomyces glabratus [20]
  MIC80: 0.6 µM (≈ 0.645 µg/mL)
Candida parapsilosis
  MIC80: 2.5 µM (≈ 2.69 µg/mL)
Cryptococcus neoformans [21]
  MFC: 2.5 µM (≈ 2.69 µg/mL)
  MIC80: 0.6 µM (≈ 0.645 µg/mL)
Aspergillus fumigatus [22]
  MFC: 5 µM (≈ 5.38 µg/mL)
  MIC80: 2.5 µM (≈ 2.69 µg/mL)
Aspergillus fumigatus [23]
  MFC: 5 µM (≈ 5.38 µg/mL)
  MIC80: 2.5 µM (≈ 2.69 µg/mL)
Aspergillus fumigatus [24]
  MFC: 5 µM (≈ 5.38 µg/mL)
  MIC80: 2.5 µM (≈ 2.69 µg/mL)
Aspergillus terreus [25]
  MFC: > 10 µM
  MIC80: 2.5 µM (≈ 2.69 µg/mL)
Hamigera insecticola [26]
  MFC: 5 µM (≈ 5.38 µg/mL)
  MIC80: 0.6 µM (≈ 0.645 µg/mL)
[Candida] auris [27]
  MIC80: 1.3 µM
[Candida] auris [28]
  MIC80: 1.3 µM
Cryptococcus neoformans [29]
  MIC80: < 0.2 µM
Cryptococcus neoformans [30]
  MIC80: < 0.2 µM
Aspergillus fumigatus [31]
  MIC80: 2.5 µM
Candida albicans [32]
  MFC<=99.9: 1.3 µM (≈ 1.4 µg/mL)
Candida tropicalis
  MFC<=99.9: 2.5 µM (≈ 2.69 µg/mL)
Pichia kudriavzevii [33]
  MFC<=99.9: 2.5 µM (≈ 2.69 µg/mL)
Aspergillus fumigatus [34]
  MFC<=99.9: 5 µM (≈ 5.38 µg/mL)
Aspergillus terreus [35]
  MFC<=99.9: >10 µM
Rhizopus arrhizus
  MFC<=99.9: >10 µM
Paecilomyces lilacinus
  MFC<=99.9: >10 µM
Hamigera insecticola [36]
  MFC<=99.9: 5 µM (≈ 5.38 µg/mL)
